Patent US7592160B2, “Processes for producing isomaltose and isomaltitol and use thereof” (Kabushiki Kaisha Hayashibara Seibutsu Kagaku Kenkyujo, priority 2001, dated 2009)

Assays:
Set-up in all cases: key: −: no saccharide-transferred product was detected through transfer reaction to acceptor; ±: a saccharide-transferred product was detected in an amount less than one percent through transfer reaction to acceptor; +: a saccharide-transferred product was detected in an amount over one percent but less than 10% through transfer reaction to acceptor; ++: a saccharide-transferred product was detected in an amount over ten percent through transfer reaction to acceptor
[1] = test system: α-isomaltosylglucosaccharide-forming enzyme; test: Transfer-acceptor specificity, enzyme of A19 strain; assay type: biochemical, Arthrobacter globiformis A19 strain; settings: acceptor 1.6%, PINE-DEX #100 donor 4%, one unit/g donor, 30° C., pH 8.4, 24 hours
Description: (§1) Using various saccharides, it was tested whether the saccharides were used as transferring-acceptors for α-isomaltosylglucosaccharide-forming enzyme. A solution of D-glucose, D-xylose, L-xylose, D-galactose, D-fructose, D-mannose, D-arabinose, D-fucose, D-psicose, L-sorbose, L-rhamnose, methyl-α-glucopyranoside, methyl-β-glucopyranoside, N-acetyl-glucosamine, sorbitol, α,α-trehalose, isomaltose, isomaltotriose, cellobiose, gentibiose, glycerol, maltitol, lactose, sucrose, α-cyclodextrin, β-cyclodextrin, γ-cyclodextrin, or L-ascorbic acid was prepared. To each solution with a saccharide concentration of 1.6% was added “PINE-DEX #100”, a partial starch hydrolyzate, as a saccharide donor, to give a concentration of 4%, and admixed with one unit/g saccharide donor, d.s.b., of either of purified specimens of α-isomaltosylglucosaccharide-forming enzyme from Bacillus globisporus C9 strain obtained by the method in Experiment 4-2, Bacillus globisporus C11 strain obtained by the method in Experiment 7-2, Bacillus globisporus N75 strain obtained by the method in Experiment 11-2, or Arthrobacter globiformis A19 strain obtained by the method in Experiment 15-2, and incubated at 30° C. and pH 6.0 for 24 hours, except that pH 8.4 was used for the enzyme from Arthrobacter globiformis A19 strain. The reaction mixtures of the post-enzymatic reactions were analyzed on gas chromatography (abbreviated as “GLC” hereinafter) for monosaccharides and disaccharides as acceptors, and on HPLC for trisaccharides as acceptors to confirm whether these saccharides could be used as the transfer acceptors of the above enzymes. In the case of performing GLC, the following apparatuses and conditions were used: GLC apparatus, “GC-16A” commercialized by Shimadzu Corporation, Tokyo, Japan; column, a stainless-steel column, 3 mm in diameter and 2 m in length, packed with 2% “SILICONE OV-17/CHROMOSOLV W”, commercialized by GL Sciences Inc., Tokyo, Japan; carrier gas, nitrogen gas at a flow rate of 40 ml/min under temperature conditions of increasing from 160° C. to 320° C. at an increasing temperature rate of 7.5° C./min; and detection, a hydrogen flame ionization detector. In the case of performing HPLC analysis, the following apparatuses and conditions were used: HPLC apparatus, “CCPD” commercialized by Tosoh Corporation, Tokyo, Japan; column, “ODS-AQ-303” commercialized by YMC Co., Ltd., Tokyo, Japan; eluent, water at a flow rate of 0.5 ml/min; and detection, a differential refractometer.

[2] = test system: α-isomaltosylglucosaccharide-forming enzyme; test: Transfer-acceptor specificity, enzyme of C11 strain; assay type: biochemical, Bacillus globisporus C11 strain; settings: acceptor 1.6%, PINE-DEX #100 donor 4%, one unit/g donor, 30° C., pH 6.0, 24 hours
Description: as §1

[3] = test system: α-isomaltosylglucosaccharide-forming enzyme; test: Transfer-acceptor specificity, enzyme of C9 strain; assay type: biochemical, Bacillus globisporus C9 strain; settings: acceptor 1.6%, PINE-DEX #100 donor 4%, one unit/g donor, 30° C., pH 6.0, 24 hours
Description: as §1

[4] = test system: α-isomaltosylglucosaccharide-forming enzyme; test: Transfer-acceptor specificity, enzyme of N75 strain; assay type: biochemical, Bacillus globisporus N75 strain; settings: acceptor 1.6%, PINE-DEX #100 donor 4%, one unit/g donor, 30° C., pH 6.0, 24 hours
Description: as §1

SMILES	Product of transferring reaction, Enzyme of A19 strain [1]	Product of transferring reaction, Enzyme of C11 strain [2]	Product of transferring reaction, Enzyme of C9 strain [3]	Product of transferring reaction, Enzyme of N75 strain [4]
O=C(CO)[C@@H](O)[C@H](O)[C@@H](O)CO [L-Sorbose, L-sorbose]	+ (a saccharide-transferred product was detected in an amount over one percent but less than 10% through transfer reaction to acceptor)	+ (a saccharide-transferred product was detected in an amount over one percent but less than 10% through transfer reaction to acceptor)	+ (a saccharide-transferred product was detected in an amount over one percent but less than 10% through transfer reaction to acceptor)	+ (a saccharide-transferred product was detected in an amount over one percent but less than 10% through transfer reaction to acceptor)
O=C[C@@H](O)[C@H](O)[C@@H](O)CO [L-Xylose, L-xylose]	+ (a saccharide-transferred product was detected in an amount over one percent but less than 10% through transfer reaction to acceptor)	++ (a saccharide-transferred product was detected in an amount over ten percent through transfer reaction to acceptor)	++ (a saccharide-transferred product was detected in an amount over ten percent through transfer reaction to acceptor)	++ (a saccharide-transferred product was detected in an amount over ten percent through transfer reaction to acceptor)
CO[C@H]1O[C@H](CO)[C@@H](O)[C@H](O)[C@H]1O [Methyl-α-glucopyranoside, methyl-α-glucopyranoside]	++ (a saccharide-transferred product was detected in an amount over ten percent through transfer reaction to acceptor)	++ (a saccharide-transferred product was detected in an amount over ten percent through transfer reaction to acceptor)	++ (a saccharide-transferred product was detected in an amount over ten percent through transfer reaction to acceptor)	++ (a saccharide-transferred product was detected in an amount over ten percent through transfer reaction to acceptor)
CO[C@@H]1O[C@H](CO)[C@@H](O)[C@H](O)[C@H]1O [Methyl-β-glucopyranoside, methyl-β-glucopyranoside]	++ (a saccharide-transferred product was detected in an amount over ten percent through transfer reaction to acceptor)	++ (a saccharide-transferred product was detected in an amount over ten percent through transfer reaction to acceptor)	++ (a saccharide-transferred product was detected in an amount over ten percent through transfer reaction to acceptor)	++ (a saccharide-transferred product was detected in an amount over ten percent through transfer reaction to acceptor)
CC(=O)N[C@H]1C(O)O[C@H](CO)[C@@H](O)[C@@H]1O (stereo partly drawn) [N-Acetylglucosamine, N-acetyl-glucosamine]	−	+ (a saccharide-transferred product was detected in an amount over one percent but less than 10% through transfer reaction to acceptor)	+ (a saccharide-transferred product was detected in an amount over one percent but less than 10% through transfer reaction to acceptor)	+ (a saccharide-transferred product was detected in an amount over one percent but less than 10% through transfer reaction to acceptor)

Second part, led by results:

Product of transferring reaction, Enzyme of A19 strain [1]	SMILES	Product of transferring reaction, Enzyme of C11 strain [2]	Product of transferring reaction, Enzyme of C9 strain [3]	Product of transferring reaction, Enzyme of N75 strain [4]
−	OC[C@@H](O)[C@@H](O)[C@H](O)[C@@H](O)CO [Sorbitol, sorbitol]	−	−	−
−	OC[C@H]1O[C@@H]2O[C@H]3[C@H](O)[C@@H](O)[C@@H](O[C@H]4[C@H](O)[C@@H](O)[C@@H](O[C@H]5[C@H](O)[C@@H](O)[C@@H](O[C@H]6[C@H](O)[C@@H](O)[C@@H](O[C@H]7[C@H](O)[C@@H](O)[C@@H](O[C@H]1[C@H](O)[C@H]2O)O[C@@H]7CO)O[C@@H]6CO)O[C@@H]5CO)O[C@@H]4CO)O[C@@H]3CO [α-Cyclodextrin, α-cyclodextrin]	−	−	−
−	OC[C@H]1O[C@@H]2O[C@H]3[C@H](O)[C@@H](O)[C@@H](O[C@H]4[C@H](O)[C@@H](O)[C@@H](O[C@H]5[C@H](O)[C@@H](O)[C@@H](O[C@H]6[C@H](O)[C@@H](O)[C@@H](O[C@H]7[C@H](O)[C@@H](O)[C@@H](O[C@H]8[C@H](O)[C@@H](O)[C@@H](O[C@H]1[C@H](O)[C@H]2O)O[C@@H]8CO)O[C@@H]7CO)O[C@@H]6CO)O[C@@H]5CO)O[C@@H]4CO)O[C@@H]3CO [β-Cyclodextrin, β-cyclodextrin]	−	−	−
−	OC[C@H]1O[C@@H]2O[C@H]3[C@H](O)[C@@H](O)[C@@H](O[C@H]4[C@H](O)[C@@H](O)[C@@H](O[C@H]5[C@H](O)[C@@H](O)[C@@H](O[C@H]6[C@H](O)[C@@H](O)[C@@H](O[C@H]7[C@H](O)[C@@H](O)[C@@H](O[C@H]8[C@H](O)[C@@H](O)[C@@H](O[C@H]9[C@H](O)[C@@H](O)[C@@H](O[C@H]1[C@H](O)[C@H]2O)O[C@@H]9CO)O[C@@H]8CO)O[C@@H]7CO)O[C@@H]6CO)O[C@@H]5CO)O[C@@H]4CO)O[C@@H]3CO [γ-Cyclodextrin, γ-cyclodextrin]	−	−	−
